The record followed here is PubChem BioAssay AID226 (DTP/NCI, 2004).

“And” between values parts separate entries of the source, which are not always exact repeats. Equal values may be shown once. Inconclusive results and toxic doses are left out.

In the assay the test system is B6C3F1 mice, intracerebral ependymoblastoma, median survival T/C. The experiment in a line: NCI In Vivo Anticancer Drug Screen. Data for tumor model Ependymoblastoma (intracerebral) in B6C3F1 mice. Conditions: endpoint: median survival time, higher = longer survival. Here is the method: The antitumor activity of compounds was measured in mice bearing transplantable tumors. Survival or tumor size were measured and the results are expressed as the measurement made in the treated group (T) divided by the measurement made in the vehicle treated control group (C). The tumor model used in this assay is Ependymoblastoma (intracerebral) in B6C3F1 mice

Where [1] appears, read: dose: 8.0 mg/kg/injection, schedule: Q01DX005 (ip), vehicle: saline with Tween-80.
[2] abbreviates: dose: 16.0 mg/kg/injection, schedule: Q01DX005 (ip), vehicle: saline with Tween-80.
Where [3] appears, read: dose: 32.0 mg/kg/injection, schedule: Q01DX005 (ip), vehicle: Klucel (hydroxypropylcellulose) (HPC).
Where [4] appears, read: dose: 32.0 mg/kg/injection, schedule: Q01DX005 (ip), vehicle: saline with Tween-80.
The mark [5] stands for this setting: dose: 64.0 mg/kg/injection, schedule: Q01DX005 (ip), vehicle: Klucel (hydroxypropylcellulose) (HPC).
The mark [6] stands for this setting: dose: 64.0 mg/kg/injection, schedule: Q01DX005 (ip), vehicle: saline with Tween-80.
The mark [7] stands for this setting: dose: 32.0 mg/kg/injection, schedule: Q01DX005 (ip), vehicle: saline.
Where [8] appears, read: dose: 64.0 mg/kg/injection, schedule: Q01DX005 (ip), vehicle: saline.
The mark [9] stands for this setting: dose: 8.0 mg/kg/injection, schedule: Q01DX005 (ip), vehicle: saline + alcohol.
[10] abbreviates: dose: 16.0 mg/kg/injection, schedule: Q01DX005 (ip), vehicle: saline + alcohol.
[11] abbreviates: dose: 128.0 mg/kg/injection, schedule: Q01DX005 (ip), vehicle: saline + alcohol.

Take `CCOC(=O)C(CC(C)C)NC(=O)C(Cc1ccc(N(CCCl)CCCl)cc1)NC(C)=O` (stereo not drawn): the T/C is 87 % of control (dose: 1.0 mg/kg/injection, schedule: Q01DX005 (ip), vehicle: Klucel (hydroxypropylcellulose) (HPC)); 95 % of control (dose: 2.0 mg/kg/injection, schedule: Q01DX005 (ip), vehicle: Klucel (hydroxypropylcellulose) (HPC)); 97 % of control and 106 % of control and 113 % of control (dose: 4.0 mg/kg/injection, schedule: Q01DX005 (ip), vehicle: Klucel (hydroxypropylcellulose) (HPC)); 104 % of control and 108 % of control (dose: 4.0 mg/kg/injection, schedule: Q01DX005 (ip), vehicle: saline with Tween-80); 97 % of control and 102 % of control and 107 % of control (dose: 8.0 mg/kg/injection, schedule: Q01DX005 (ip), vehicle: Klucel (hydroxypropylcellulose) (HPC)); 101 % of control and 104 % of control under setting [1]. Besides, the T/C is 100 % of control and 102 % of control and 105 % of control (dose: 16.0 mg/kg/injection, schedule: Q01DX005 (ip), vehicle: Klucel (hydroxypropylcellulose) (HPC)); 98 % of control and 105 % of control under setting [2]; 105 % of control and 109 % of control and 110 % of control under setting [3]; 106 % of control under setting [4]; 115 % of control under setting [5]; 163 % of control under setting [6].

On to `CC1=C(/C=C/C(C)=C/C=C/C(C)=C/C(=O)O)C(C)(C)CCC1`, for which the T/C by setting is: under setting [1], 99 % of control; under setting [2], 119 % of control; under setting [4], 115 % of control; under setting [6], 118 % of control; (dose: 128.0 mg/kg/injection, schedule: Q01DX005 (ip), vehicle: saline with Tween-80) 109 % of control.

In the case of `CC(C)[C@](O)(C(=O)OCC1=CC[N+]2([O-])CC[C@@H](O)[C@@H]12)[C@H](C)O` (stereo partly drawn), the T/C under setting [7] was 104 % of control; the T/C under setting [8] is 98 % of control and 101 % of control; the T/C (dose: 128.0 mg/kg/injection, schedule: Q01DX005 (ip), vehicle: saline) is 95 % of control and 100 % of control; the T/C (dose: 256.0 mg/kg/injection, schedule: Q01DX005 (ip), vehicle: saline) is 103 % of control and 108 % of control; the T/C (dose: 512.0 mg/kg/injection, schedule: Q01DX005 (ip), vehicle: saline) was 94 % of control and 117 % of control.

Regarding `Cc1c2ccncc2c(C)c2c1[nH]c1ccccc12`, the T/C (dose: 128.0 mg/kg/injection, schedule: Q01DX001 (ip), vehicle: Klucel (hydroxypropylcellulose) (HPC)) was 112 % of control.

Consider `O=NN(CCCl)C(=O)NC1CCN(Cc2ccccc2)CC1`, for which the T/C runs as follows: (dose: 12.5 mg/kg/injection, schedule: Q01DX001 (ip), vehicle: water) 124 % of control; (dose: 50.0 mg/kg/injection, schedule: Q01DX001 (ip), vehicle: water) 160 % of control; (dose: 100.0 mg/kg/injection, schedule: Q01DX001 (ip), vehicle: water) 242 % of control.

With `CN(C)C1=CC(=O)C(N(C)C)=CC1=O`, the T/C is, setting by setting: (dose: 12.5 mg/kg/injection, schedule: Q01DX005 (ip), vehicle: saline) 105 % of control; (dose: 25.0 mg/kg/injection, schedule: Q01DX005 (ip), vehicle: saline) 101 % of control; (dose: 50.0 mg/kg/injection, schedule: Q01DX005 (ip), vehicle: saline) 100 % of control; (dose: 100.0 mg/kg/injection, schedule: Q01DX005 (ip), vehicle: saline) 97 % of control.

Turning to `COS(C)(=O)=O`, the T/C by setting is: (dose: 16.0 mg/kg/injection, schedule: Q01DX005 (ip), vehicle: saline) 118 % of control; under setting [7], 102 % of control; under setting [8], 100 % of control.

With `NCCOCC(N)C(=O)O` (stereo not drawn), the T/C is, setting by setting: (dose: 62.5 mg/kg/injection, schedule: Q01DX005 (ip), vehicle: saline) 93 % of control; (dose: 125.0 mg/kg/injection, schedule: Q01DX005 (ip), vehicle: saline) 95 % of control; (dose: 250.0 mg/kg/injection, schedule: Q01DX005 (ip), vehicle: saline) 98 % of control; (dose: 500.0 mg/kg/injection, schedule: Q01DX005 (ip), vehicle: saline) 103 % of control.

For `COC(=O)c1cccc(N=NN(C)C)c1`, the T/C reads like this: under setting [9], 98 % of control; under setting [10], 108 % of control; (dose: 32.0 mg/kg/injection, schedule: Q01DX005 (ip), vehicle: saline + alcohol) 123 % of control; (dose: 100.0 mg/kg/injection, schedule: Q01DX005 (ip), vehicle: saline with Tween-80) 114 % of control; under setting [11], 162 % of control.

For `NC(CSC(c1ccccc1)(c1ccccc1)c1ccccc1)C(=O)O` (stereo not drawn), the T/C under setting [3] is 107 % of control; the T/C under setting [5] was 107 % of control; the T/C (dose: 512.0 mg/kg/injection, schedule: Q01DX001 (ip), vehicle: Klucel (hydroxypropylcellulose) (HPC)) is 108 % of control; the T/C (dose: 516.0 mg/kg/injection, schedule: Q01DX001 (ip), vehicle: Klucel (hydroxypropylcellulose) (HPC)) is 86 % of control.

Take `CC(=O)Nc1ccc(/C=N/NC(N)=S)cc1`: the T/C reads like this: (dose: 50.0 mg/kg/injection, schedule: Q01DX005 (ip), vehicle: Klucel (hydroxypropylcellulose) (HPC)) 93 % of control; (dose: 100.0 mg/kg/injection, schedule: Q01DX005 (ip), vehicle: Klucel (hydroxypropylcellulose) (HPC)) 91 % of control; (dose: 200.0 mg/kg/injection, schedule: Q01DX005 (ip), vehicle: Klucel (hydroxypropylcellulose) (HPC)) 90 % of control; (dose: 400.0 mg/kg/injection, schedule: Q01DX005 (ip), vehicle: Klucel (hydroxypropylcellulose) (HPC)) 91 % of control; (dose: 800.0 mg/kg/injection, schedule: Q01DX005 (ip), vehicle: Klucel (hydroxypropylcellulose) (HPC)) 112 % of control.

For `COC(=O)c1ccc(N=NN(C)C)cc1`, the T/C reads like this: under setting [9], 114 % of control; under setting [10], 114 % of control; under setting [11], 160 % of control and 164 % of control; (dose: 256.0 mg/kg/injection, schedule: Q01DX005 (ip), vehicle: saline + alcohol) 100 % of control.

As to `COc1ccc2c(c1OC(C)=O)-c1cc(OC(C)=O)cc3c1C(C2)N(C(=O)CN(CCCl)CCCl)CC3` (stereo not drawn), the T/C (dose: 12.5 mg/kg/injection, schedule: Q01DX005 (ip), vehicle: DMSO) was 108 % of control.

`CO[C@H]1C[C@@H]2CC[C@@H](C)[C@@](O)(O2)C(=O)C(=O)N2CCCC[C@H]2C(=O)O[C@H]([C@H](C)C[C@@H]2CC[C@@H](O)[C@H](OC)C2)CC(=O)[C@H](C)C=C(C)[C@@H](O)[C@@H](OC)C(=O)[C@H](C)C[C@H](C)/C=C/C=C/C=C1C`: the T/C was 118 % of control (dose: 3.12 mg/kg/injection, schedule: Q01DX009 (ip), vehicle: clinical formulation); 113 % of control (dose: 6.25 mg/kg/injection, schedule: Q01DX005 (ip), vehicle: saline with Tween-80); 202 % of control (dose: 12.5 mg/kg/injection, schedule: Q01DX009 (ip), vehicle: gum acacia); 106 % of control (dose: 25.0 mg/kg/injection, schedule: Q01DX005 (oral), vehicle: saline with Tween-80); 156 % of control (dose: 25.0 mg/kg/injection, schedule: Q01DX009 (ip), vehicle: clinical formulation); 198 % of control (dose: 25.0 mg/kg/injection, schedule: Q01DX009 (ip), vehicle: gum acacia). Moreover, the T/C runs as follows: (dose: 50.0 mg/kg/injection, schedule: Q01DX005 (oral), vehicle: saline with Tween-80) 107 % of control and 108 % of control; (dose: 50.0 mg/kg/injection, schedule: Q01DX009 (ip), vehicle: clinical formulation) 152 % of control and 156 % of control; (dose: 50.0 mg/kg/injection, schedule: Q01DX009 (ip), vehicle: gum acacia) 177 % of control; (dose: 100.0 mg/kg/injection, schedule: Q01DX005 (oral), vehicle: saline with Tween-80) 100 % of control and 107 % of control; (dose: 100.0 mg/kg/injection, schedule: Q01DX009 (ip), vehicle: clinical formulation) 162 % of control and 167 % of control; (dose: 100.0 mg/kg/injection, schedule: Q01DX009 (ip), vehicle: gum acacia) 185 % of control. Also, the T/C runs as follows: (dose: 200.0 mg/kg/injection, schedule: Q01DX005 (ip), vehicle: saline with Tween-80) 113 % of control and 193 % of control and 207 % of control; (dose: 200.0 mg/kg/injection, schedule: Q01DX005 (oral), vehicle: saline with Tween-80) 103 % of control and 108 % of control; (dose: 400.0 mg/kg/injection, schedule: Q01DX005 (oral), vehicle: saline with Tween-80) 108 % of control and 119 % of control; (dose: 400.0 mg/kg/injection, schedule: Q01DX009 (ip), vehicle: gum acacia) 198 % of control; (dose: 800.0 mg/kg/injection, schedule: Q01DX005 (oral), vehicle: saline with Tween-80) 124 % of control.
